According to patent US20190083497A1, “MODULATION OF BLOOD BRAIN BARRIER PERMEABILITY” (Cornell University, priority 2008, published 2019):

How the values were obtained:
Type in all cases: in vivo, mouse
[1] = tested on: EAE-induced mice; test: EAE induction and scoring (MOG35-55/CFA + pertussis toxin); conditions: wild type mice; 2 mg/kg (1 mg/kg s.c. and 1 mg/kg i.p.) in 45% DMSO, 1 day prior to and daily for 30 days; vs DMSO alone
Protocol: C57BL/6 and tcrα^−/− mice on the C57BL/6 background were purchased from The Jackson Laboratories. Mice were bred and housed under specific pathogen-free conditions at Cornell University or the University of Turku. For adenosine receptor blockade experiments, mice were given drinking water supplemented with 0.6 g/L of caffeine (Sigma) or 2 mg/kg SCH58261 (1 mg/kg s.c. and 1 mg/kg i.p.) in DMSO (45% vol. in PBS) or 45% DMSO alone starting 1 day before EAE induction and continuing throughout the experiment. All procedures performed on mice were approved by the relevant animal review committee.
EAE was induced by subjecting mice to the myelin oligodendrocyte glycoprotein (“MOG”) EAE-inducing regimen as described in Swanborg, “Experimental Autoimmune Encephalomyelitis in Rodents as a Model for Human Demyelinating Disease,” Clin. Immunol. […] Briefly, a 1:1 emulsion of MOG35-55 peptide (3 mg/ml in PBS) (Invitrogen) and complete Freund's adjuvant (CFA, Sigma) was injected subcutaneously (50 μl) into each flank. Pertussis toxin (PTX, 20 ng) (Biological Laboratories Inc.) was given intravenously (200 μl in PBS) at the time of immunization and again 2 days later. Mice were scored daily for EAE based on disease symptom severity; 0=no disease, 0.5 -1=weak/limp tail, 2=limp tail and partial hind limb paralysis, 3=total hind limb paralysis, 4=both hind limb and fore limb paralysis, 5=death. Mice with a score of 4 were euthanized.
Wild type mice were given 1 mg/kg of SCH58261 in DMSO or DMSO alone both i.p. and s.c. (for a total of 2 mg/kg) 1 day prior to EAE induction and daily for 30 days throughout the course of the experiment (FIG. 7C).

[2] = tested on: CNS lymphocyte infiltration; test: CD4+ infiltrating lymphocytes in brain and spinal cord after EAE induction (immunohistochemistry); conditions: wild type mice, day 15 post-EAE induction; 2 mg/kg daily; vs DMSO treated mice
Protocol: FIGS. 7A-7D show adenosine receptor blockade protects mice from EAE development. […] Results are from one experiment (n=5 mice per group). […] Samples were run in triplicate; error bars represent the standard error of the mean. […] Eight anatomically similar fields per brain and 4 fields per spinal cord per mouse were analyzed at 10×magnification (n=4 mice). Error bars represent the standard error of the mean.
Anesthetized mice were perfused with PBS, and brains, spleens, and spinal cords were isolated and snap frozen in Tissue Tek-OCT medium. Five μm sections (brains in a sagittal orientation) were affixed to Supefrost/Plus slides (Fisher), fixed in acetone, and stored at −80° C. […]
(§1) As CD73 catalyzes the breakdown of AMP to adenosine and ARs are expressed in the CNS (Tsutsui et al., “A1 Adenosine Receptor Upregulation and Activation Attenuates Neuroinflammation and Demyelination in a Model of Multiple Sclerosis,” J. Neurosci. 24:1521-1529 (2004)); Rosi et al., The Influence of Brain Inflammation Upon Neuronal Adenosine A2B Receptors,” J. Neurochem. 86:220-227 (2003), which are hereby incorporated by reference in their entirety), it was next determined if AR signaling is important during EAE progression. […] Since CD73 is highly expressed on the choroid plexus (FIG. 6C), it was next determined if ARs are also expressed on the choroid plexus. […]

[3] = tested on: ICAM-1; test: ICAM-1 expression at the choroid plexus after EAE induction (immunohistochemistry); conditions: wild type mice, day 15 post-EAE induction; 2 mg/kg daily; vs DMSO
Protocol: Mice were treated with the A2a adenosine receptor antagonist SCH58261 2 mg/kg (1 mg/kg given s.c. and 1 mg/kg given i.p.) in DMSO (n=4 mice/group) or DMSO alone (n=5 mice/group) 1 day prior to and daily up to day 30 following EAE induction. […] Frozen tissue sections from day 15 post-EAE induction in SCH58261 and DMSO treated mice were examined for ICAM-1 expression at the choroid plexus. WT treated DMSO (left) or SCH58261 (right) and stained for ICAM-1 (red staining, white arrows) and DAPI (blue, nuclei) at 40× magnification. Images are from 4 separate mice.
Anesthetized mice were perfused with PBS, and brains, spleens, and spinal cords were isolated and snap frozen in Tissue Tek-OCT medium. […]
as §1

[4] = tested on: blood brain barrier; test: FITC-Dextran extravasation through the brain endothelium; conditions: wild type mice (FIG. 16)
Protocol: In order to examine the effects of caffeine, a general adenosine receptor antagonist, on blood brain barrier permeability, mice were fed caffeine for several days and then injected with FITC Dextran, commonly used to assess endothelial permeability.
More particularly, mice were fed 0.6 g/l caffeine (Sigma, St. Louis, Mo.) in water or regular water ad lib for five days. Mice were injected IP with FITC Dextran (10,000 MW, Molecular Probes, Eugene, Oreg.) and after 30 minutes mice were perfused with ice cold PBS via the left ventricle. Brains were removed and snap frozen in OCT (Tissue Tek, Torrance, Calif.) and stored at −80° C. until sectioning. Tissue sections (5 μm) were stained with hematoxylin for light microscopy and with DAPI for a fluorescent counterstain.

Question: How did the “EAE development (mean EAE score)” value [1] turn out when `Nc1nc2c(cnn2CCc2ccccc2)c2nc(-c3ccco3)nn12` [SCH58261] was run?
Answer: Its value is “dramatically protected against EAE development”.

Question: What about the “frequency of CD4 lymphocytes in the brain and spinal cord” value [2] of the same molecule?
Answer: The value was “significantly lower frequency of CD4 lymphocytes in the brain and spinal cord”.

Question: And the “ICAM-1 up regulation on the choroid plexus” value [3]?
Answer: Its value is “prevented the up regulation of ICAM-1”.

Question: And the “FITC-Dextran extravasation across the blood brain barrier” value [4]?
Answer: The value was “inhibit FITC-Dextran extravasation”.
